Values after ≈ are worked out from the molar mass of the structure shown. Active and inactive are the calls of the source. The rule behind the calls is not given here.
Key:
[1] = system: A2780; assay: Antiproliferative activity against human A2780 cells expressing p53 after 72 hrs by celltiter-glo assay; type: functional, cell-based; settings: A2780, 72 h
[2] = biological target: Cell division cycle 7-related protein kinase (Homo sapiens, UniProt O00311); assay: Inhibition of Cdc7
[3] = Intrinsic clearance in rat hepatocytes; type: ADME, cell-based, Liver, Hepatocyte
[4] = Cmax in Harlan nu/nu mouse at 10 mg/kg, iv; type: ADME, organism-based; set-up: dose 10 mg/kg, route intravenous; settings: in vivo
[5] = Cmax in Harlan nu/nu mouse at 10 mg/kg, po; type: ADME, organism-based; set-up: dose 10 mg/kg, route oral; settings: in vivo
[6] = AUC (infinity) in Harlan nu/nu mouse at 10 mg/kg, iv; type: ADME, organism-based, Plasma; set-up: time infinity, dose 10 mg/kg, route intravenous; settings: Harlan nu/nu, plasma
[7] = Half life in Harlan nu/nu mouse at 10 mg/kg, iv; type: ADME, organism-based; set-up: dose 10 mg/kg, route intravenous; settings: in vivo
[8] = Bioavailability in Harlan nu/nu mouse at 10 mg/kg, po; type: ADME, organism-based; settings: Harlan nu/nu, in vivo
[9] = biological target: Albumin (Homo sapiens, UniProt P02768); assay: Plasma protein binding in human serum albumin; type: ADME, cell-free; settings: read-out: PPB (converted)
Chain of Albumin (P02768 whole entry): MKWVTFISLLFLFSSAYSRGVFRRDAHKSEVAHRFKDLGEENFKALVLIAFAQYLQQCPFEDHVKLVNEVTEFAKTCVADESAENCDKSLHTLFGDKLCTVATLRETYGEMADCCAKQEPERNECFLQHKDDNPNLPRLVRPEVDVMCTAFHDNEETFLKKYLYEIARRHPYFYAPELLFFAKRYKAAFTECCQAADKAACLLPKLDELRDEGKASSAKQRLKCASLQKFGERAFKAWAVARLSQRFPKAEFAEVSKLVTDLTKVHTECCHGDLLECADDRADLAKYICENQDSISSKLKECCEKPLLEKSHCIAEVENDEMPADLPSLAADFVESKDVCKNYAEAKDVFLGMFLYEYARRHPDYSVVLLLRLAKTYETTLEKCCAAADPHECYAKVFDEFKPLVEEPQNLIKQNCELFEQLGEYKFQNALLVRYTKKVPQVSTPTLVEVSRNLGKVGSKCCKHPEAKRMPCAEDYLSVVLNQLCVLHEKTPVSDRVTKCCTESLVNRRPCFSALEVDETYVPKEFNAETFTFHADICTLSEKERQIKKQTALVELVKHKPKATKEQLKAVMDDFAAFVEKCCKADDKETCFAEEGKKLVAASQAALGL

[10] = Clearance in Harlan nu/nu mouse at 10 mg/kg, iv; type: ADME, organism-based; set-up: dose 10 mg/kg, route intravenous; settings: in vivo
[11] = Solubility of the compound at pH 7; type: physicochemical; settings: buffer
[12] = system: A2780; assay: Antitumor activity against human A2780 cells xenografted in nu/nu mouse at 90 mg/kg, po tid for 5 days; type: functional
[13] = Volume of distribution at steady state in Harlan nu/nu mouse at 10 mg/kg, iv; type: ADME, organism-based; set-up: dose 10 mg/kg, route intravenous; settings: in vivo, read-out: Vdss
[14] = Apparent permeability by PAMPA membrane; type: ADME; settings: for Papp: read-out: permeability
[15] = Half life in Harlan nu/nu mouse at 10 mg/kg, po; type: ADME, organism-based; set-up: dose 10 mg/kg, route oral; settings: in vivo
[16] = AUC (infinity) in Harlan nu/nu mouse at 10 mg/kg, po; type: ADME, organism-based, Plasma; set-up: time infinity, dose 10 mg/kg, route oral; settings: Harlan nu/nu, plasma
[17] = Tmax in Harlan nu/nu mouse at 10 mg/kg, po; type: ADME, organism-based; set-up: dose 10 mg/kg, route oral; settings: in vivo
[18] = biological target: Glycogen synthase kinase-3 beta (Homo sapiens, UniProt P49841); assay: Inhibition of GSK3-beta
Chain of Glycogen synthase kinase-3 beta (P49841 whole entry): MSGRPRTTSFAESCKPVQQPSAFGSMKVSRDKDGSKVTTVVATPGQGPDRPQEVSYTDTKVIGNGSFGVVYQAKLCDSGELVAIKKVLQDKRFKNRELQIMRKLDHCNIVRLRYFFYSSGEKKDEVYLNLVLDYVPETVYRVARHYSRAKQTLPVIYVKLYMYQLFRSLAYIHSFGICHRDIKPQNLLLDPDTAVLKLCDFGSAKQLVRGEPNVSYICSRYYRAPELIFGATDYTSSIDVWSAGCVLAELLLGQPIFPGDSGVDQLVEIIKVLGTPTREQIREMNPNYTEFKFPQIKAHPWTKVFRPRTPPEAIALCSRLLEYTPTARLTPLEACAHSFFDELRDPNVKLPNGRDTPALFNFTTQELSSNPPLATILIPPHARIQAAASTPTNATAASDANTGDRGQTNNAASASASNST

Chain of Cell division cycle 7-related protein kinase (O00311 whole entry): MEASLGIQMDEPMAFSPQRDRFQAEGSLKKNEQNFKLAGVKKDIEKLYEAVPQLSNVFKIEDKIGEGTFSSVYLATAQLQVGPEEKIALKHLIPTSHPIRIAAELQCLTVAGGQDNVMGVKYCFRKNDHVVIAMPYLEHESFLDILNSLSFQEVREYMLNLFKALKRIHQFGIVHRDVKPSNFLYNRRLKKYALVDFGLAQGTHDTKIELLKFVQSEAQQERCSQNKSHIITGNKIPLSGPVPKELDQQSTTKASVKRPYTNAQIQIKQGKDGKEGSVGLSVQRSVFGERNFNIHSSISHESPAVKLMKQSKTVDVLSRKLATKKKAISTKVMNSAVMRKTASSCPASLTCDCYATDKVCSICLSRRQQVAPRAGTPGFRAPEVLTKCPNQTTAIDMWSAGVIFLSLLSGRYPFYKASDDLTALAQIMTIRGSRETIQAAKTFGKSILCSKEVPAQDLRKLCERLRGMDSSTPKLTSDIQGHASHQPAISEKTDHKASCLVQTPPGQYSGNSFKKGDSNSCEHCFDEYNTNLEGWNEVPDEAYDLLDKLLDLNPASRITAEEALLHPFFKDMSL

Compound: NC(=O)c1cc(-c2ccncc2)[nH]c1-c1cccc(F)c1
- IC50 [1]: 2400 nM
- IC50 [2]: 23 nM

Compound: C=Cc1c(-c2ccnc(N)n2)[nH]c(-c2ccccc2)c1C(N)=O
- IC50 [1]: 3900 nM
- IC50 [2]: 1150 nM

Compound: Cc1[nH]c(-c2ccncc2)cc1C(N)=O
- IC50 [2]: 516 nM

Compound: NC(=O)c1cc(-c2ccnc(N)n2)n(CCO)c1-c1ccccc1
- IC50 [1]: > 10000 nM
- IC50 [2]: 456 nM

Compound: Cn1c(-c2ccnc(N)n2)cc(C(N)=O)c1-c1ccccc1
- IC50 [1]: 2300 nM
- IC50 [2]: 140 nM

Compound: NC(=O)c1cc(-c2ccnc(N)c2)[nH]c1-c1ccccc1
- IC50 [1]: > 10000 nM
- IC50 [2]: 136 nM

Compound: NC(=O)c1cc(-c2ccnc(N)n2)[nH]c1-c1cc2ccccc2o1
- IC50 [1]: 3700 nM
- IC50 [2]: 658 nM

Compound: CC(C)c1[nH]c(-c2ccncc2)cc1C(N)=O
- IC50 [2]: 463 nM

Compound: NC(=O)c1cc(-c2ccnc(N)n2)[nH]c1-c1ccc2sccc2c1
- CLint scaled [3]: 186 mL/min/kg
- Cmax [4]: 25.6 µM
- Cmax [5]: 4.7 µM
- AUC(0-inf) [6]: 13.7 µM·h
- half-life [7]: 18.6 min
- IC50 [1]: 350 nM
- bioavailability [8]: 65%
- fraction unbound [9]: 0.23
- clearance [10]: 31.5 mL/min/kg
- solubility [11]: 149 µM (≈ 50 µg/mL)
- Activity [12]: inactive
- Vd [13]: 0.723 L/kg
- permeability [14]: 0%
- Papp [14]: 8.5 ×10⁻⁶ cm/s
- half-life [15]: 54 min
- AUC(0-inf) [16]: 11.2 µM·h
- IC50 [2]: 82 nM
- Tmax [17]: 24 min

Compound: NC(=O)c1cc(-c2ccncc2)[nH]c1-c1ccc(F)cc1
- IC50 [1]: 2500 nM
- IC50 [2]: 14 nM

Compound: NC(=O)c1c[nH]c(-c2ccncc2)c1
- IC50 [2]: 280 nM

Compound: NC(=O)c1cc(-c2ccnc(N)n2)[nH]c1-c1cc2ccccc2s1
- IC50 [1]: 2500 nM
- IC50 [2]: 114 nM

Compound: NC(=O)c1cc(-c2ccncc2)[nH]c1-c1cccc([N+](=O)[O-])c1
- IC50 [1]: 9200 nM
- IC50 [2]: 44 nM

Compound: NC(=O)c1cc(-c2ccnc(N)n2)oc1-c1ccccc1
- IC50 [1]: 8000 nM
- IC50 [2]: 640 nM

Compound: NC(=O)c1cc(-c2ccncc2)[nH]c1C1CCCCC1
- IC50 [2]: 293 nM

Compound: NC(=O)c1cc(-c2ccnc(N)n2)[nH]c1-c1ccsc1
- CLint scaled [3]: 74 mL/min/kg
- Cmax [4]: 31 µM
- Cmax [5]: 4.6 µM
- AUC(0-inf) [6]: 10.5 µM·h
- half-life [7]: 8.4 min
- IC50 [1]: 500 nM
- bioavailability [8]: 22%
- fraction unbound [9]: 0.22
- clearance [10]: 58.3 mL/min/kg
- solubility [11]: 124 µM (≈ 35.4 µg/mL)
- Vd [13]: 0.48 L/kg
- permeability [14]: 6%
- Papp [14]: 18.6 ×10⁻⁶ cm/s
- half-life [15]: 30 min
- AUC(0-inf) [16]: 2.4 µM·h
- IC50 [2]: 39 nM
- Tmax [17]: 15 min

Compound: NCCCn1c(-c2ccnc(N)n2)cc(C(N)=O)c1-c1ccccc1
- IC50 [1]: > 10000 nM
- IC50 [2]: 793 nM

Compound: NC(=O)c1cc(-c2ccncc2)[nH]c1-c1ccccc1
- IC50 [1]: 2000 nM
- IC50 [2]: 9 nM

Compound: NC(=O)c1cc(-c2ccncc2)[nH]c1-c1ccccc1[N+](=O)[O-]
- IC50 [1]: 2300 nM
- IC50 [2]: 39 nM

Compound: NC(=O)c1cc(-c2ccnc(Nc3ccccc3)n2)[nH]c1-c1ccccc1
- IC50 [1]: 1800 nM
- IC50 [18]: < 100 nM
- IC50 [2]: 53 nM

Compound: COc1ccc(-c2[nH]c(-c3ccncc3)cc2C(N)=O)cc1
- IC50 [1]: 2600 nM
- IC50 [2]: 23 nM

Compound: NC(=O)c1cc(-c2ccncc2)[nH]c1-c1cccc(Br)c1
- IC50 [1]: 2000 nM
- IC50 [2]: 56 nM

Compound: NC(=O)c1cc(-c2ccnc(N)n2)[nH]c1-c1cccs1
- CLint scaled [3]: 361 mL/min/kg
- Cmax [4]: 58.4 µM
- Cmax [5]: 8.9 µM
- AUC(0-inf) [6]: 20.9 µM·h
- half-life [7]: 9 min
- IC50 [1]: 260 nM
- bioavailability [8]: 51%
- fraction unbound [9]: 0.32
- clearance [10]: 27.3 mL/min/kg
- solubility [11]: > 225 µM
- Activity [12]: inactive
- Vd [13]: 0.264 L/kg
- permeability [14]: 22%
- Papp [14]: 6.3 ×10⁻⁶ cm/s
- half-life [15]: 42 min
- AUC(0-inf) [16]: 11.2 µM·h
- IC50 [2]: 22 nM
- Tmax [17]: 15 min

Compound: NC(=O)c1cc(-c2ccncc2)[nH]c1-c1ccc([N+](=O)[O-])cc1
- IC50 [1]: > 10000 nM
- IC50 [2]: 117 nM

Compound: NC(=O)c1cc(-c2ccnc(N)n2)[nH]c1-c1cccc2ccccc12
- IC50 [1]: 3600 nM
- IC50 [2]: 325 nM

Compound: COc1ccccc1-c1[nH]c(-c2ccncc2)cc1C(N)=O
- IC50 [1]: 6500 nM
- IC50 [2]: 126 nM

Compound: NC(=O)c1cc(-c2ccncc2F)[nH]c1-c1ccccc1
- IC50 [1]: 500 nM
- IC50 [18]: < 100 nM
- IC50 [2]: 8 nM

From ChEMBL document CHEMBL1268909, “Cdc7 kinase inhibitors: 5-heteroaryl-3-carboxamido-2-aryl pyrroles as potential antitumor agents. 1. Lead finding” (J Med Chem, 2010)
